{"source": "patent US9108944B2", "about": "“Androgen receptor modulators and uses thereof” (ARAGON PHARMACEUTICALS, INC., priority 2010, dated 2015)", "note": "pIC50: −log10 of the molar value."}
{"biological_target": "T1, AR-VP16 (Homo sapiens, UniProt P10275)", "T1 sequence (P10275 560-920 limits assumed)": "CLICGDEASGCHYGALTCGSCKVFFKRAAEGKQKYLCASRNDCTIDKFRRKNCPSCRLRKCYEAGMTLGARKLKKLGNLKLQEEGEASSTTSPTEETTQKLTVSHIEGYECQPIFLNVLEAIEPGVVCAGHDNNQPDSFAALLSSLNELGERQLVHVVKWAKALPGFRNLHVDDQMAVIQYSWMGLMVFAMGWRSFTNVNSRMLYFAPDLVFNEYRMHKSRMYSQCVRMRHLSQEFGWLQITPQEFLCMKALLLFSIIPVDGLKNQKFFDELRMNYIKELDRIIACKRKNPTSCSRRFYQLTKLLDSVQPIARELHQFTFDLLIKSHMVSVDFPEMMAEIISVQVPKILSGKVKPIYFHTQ", "assay": "AR-VP16 DNA Binding Assay, antagonist mode (HepG2 cells, 0.1 nM R1881)", "assay_type": "cell-based", "conditions": "not given", "summary_of_the_method": "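Transfected HepG2 cells expressing AR-VP16 received serially diluted compound in charcoal-stripped-serum RPMI the day after transfection, with 0.1 nM R1881 (final) added only for antagonist testing. After 48 h, cells were lysed for measurement.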"}
{"molecule": "N#Cc1ncc(N2C(=O)C3(CCC3)N(c3ccc(OCCN4CCSCC4)c(F)c3)C2=S)cc1C(F)(F)F", "note": "[Compound 175, 5-(5-(3-Fluoro-4-(2-thiomorpholinoethoxy)phenyl)-8-oxo-6-thioxo-5,7-diazaspiro[3.4]octan-7-yl)-3-(trifluoromethyl)picolinonitrile]", "pIC50": "> 6.00"}
{"molecule": "N#Cc1ncc(N2C(=O)C3(CCC3)N(c3ccc(-c4ccncc4)cc3)C2=S)cc1C(F)(F)F", "note": "[Compound 18, 5-(8-Oxo-5-(4-(pyridin-4-yl)phenyl)-6-thioxo-5,7-diazaspiro[3.4]octan-7-yl)-3-(trifluoromethyl)picolinonitrile]", "pIC50": "> 6.00"}
{"molecule": "N#Cc1ncc(N2C(=O)C3(CCC3)N(c3ccc(Oc4ccccc4)cc3)C2=S)cc1C(F)(F)F", "note": "[Compound 25, 5-(8-Oxo-5-(4-phenoxyphenyl)-6-thioxo-5,7-diazaspiro[3.4]octan-7-yl)-3-(trifluoromethyl)picolinonitrile]", "pIC50": "> 6.00"}
{"molecule": "CNC(=O)c1ccc(N2C(=S)N(c3cnc(C#N)c(C(F)(F)F)c3)C(=O)C23CCC3)c(F)c1", "note": "[Compound 89, 4-(7-(6-Cyano-5-(trifluoromethyl)pyridin-3-yl)-8-oxo-6-thioxo-5,7-diazaspiro[3.4]octan-5-yl)-3-fluoro-N-methylbenzamide]", "pIC50": "> 6.00"}
{"molecule": "Cc1ccc(NC(=O)c2ccc(N3C(=S)N(c4cnc(C#N)c(C)c4)C(=O)C34CCC4)cc2F)cn1", "note": "[Compound 304, 4-(7-(6-Cyano-5-methylpyridin-3-yl)-8-oxo-6-thioxo-5,7-diazaspiro[3.4]octan-5-yl)-2-fluoro-N-(6-methylpyridin-3-yl)benzamide]", "pIC50": "> 6.00"}
{"molecule": "CN1CCN(CCCOc2ccc(N3C(=S)N(c4cnc(C#N)c(C(F)(F)F)c4)C(=O)C34CCC4)cc2F)CC1", "note": "[Compound 157, 5-(5-(3-Fluoro-4-(3-(4-methylpiperazin-1-yl)propoxy)phenyl)-8-oxo-6-thioxo-5,7-diazaspiro[3.4]octan-7-yl)-3-(trifluoromethyl)picolinonitrile]", "pIC50": "> 6.00"}
{"molecule": "N#Cc1ncc(N2C(=O)C3(CCC3)N(c3ccc(OCc4ccccn4)c(F)c3)C2=S)cc1C(F)(F)F", "note": "[Compound 147, 5-(5-(3-Fluoro-4-(pyridin-2-ylmethoxy)phenyl)-8-oxo-6-thioxo-5,7-diazaspiro[3.4]octan-7-yl)-3-(trifluoromethyl)picolinonitrile]", "pIC50": "> 6.00"}
{"molecule": "N#Cc1ncc(N2C(=O)C3(CCC3)N(c3ccc(OCCc4ccccn4)cc3F)C2=S)cc1C(F)(F)F", "note": "[Compound 183, 5-(5-(2-Fluoro-4-(2-(pyridin-2-yl)ethoxy)phenyl)-8-oxo-6-thioxo-5,7-diazaspiro[3.4]octan-7-yl)-3-(trifluoromethyl)picolinonitrile]", "pIC50": "> 6.00"}
{"molecule": "N#Cc1ncc(N2C(=O)C3(CCC3)N(c3ccc(C(=O)NCc4cccnc4)c(F)c3)C2=S)cc1C(F)(F)F", "note": "[Compound 265, 4-(7-(6-Cyano-5-(trifluoromethyl)pyridin-3-yl)-8-oxo-6-thioxo-5,7-diazaspiro[3.4]octan-5-yl)-2-fluoro-N-(pyridin-3-ylmethyl)benzamide]", "pIC50": "> 6.00"}
{"molecule": "CC1(C)C(=O)N(c2cnc(C#N)c(C(F)(F)F)c2)C(=S)N1c1ccc(O)cc1", "note": "[Compound 100, 5-(3-(4-Hydroxyphenyl)-4,4-dimethyl-5-oxo-2-thioxoimidazolidin-1-yl)-3-(trifluoromethyl)picolinonitrile]", "pIC50": "> 6.00"}
{"molecule": "N#Cc1ncc(N2C(=O)C3(CCC3)N(c3ccc(C(=O)NCc4cccs4)c(F)c3)C2=S)cc1C(F)(F)F", "note": "[Compound 260, 4-(7-(6-Cyano-5-(trifluoromethyl)pyridin-3-yl)-8-oxo-6-thioxo-5,7-diazaspiro[3.4]octan-5-yl)-2-fluoro-N-(thiophen-2-ylmethyl)benzamide]", "pIC50": "> 6.00"}
{"molecule": "N#Cc1ncc(N2C(=O)C3(CCC3)N(c3ccc(C(=O)NC4CCCC4)c(F)c3)C2=S)cc1C(F)(F)F", "note": "[Compound 267, 4-(7-(6-Cyano-5-(trifluoromethyl)pyridin-3-yl)-8-oxo-6-thioxo-5,7-diazaspiro[3.4]octan-5-yl)-N-cyclopentyl-2-fluorobenzamide]", "pIC50": "> 6.00"}
{"molecule": "N#Cc1ncc(N2C(=O)C3(CCC3)N(c3cccc4ccccc34)C2=S)cc1C(F)(F)F", "note": "[Compound 110, 5-(5-(Naphthalen-1-yl)-8-oxo-6-thioxo-5,7-diazaspiro[3.4]octan-7-yl)-3-(trifluoromethyl)picolinonitrile]", "pIC50": "> 6.00"}
{"molecule": "C#CCNC(=O)c1ccc(N2C(=S)N(c3cnc(C#N)c(C(F)(F)F)c3)C(=O)C23CCC3)cc1F", "note": "[Compound 281, 4-(7-(6-Cyano-5-(trifluoromethyl)pyridin-3-yl)-8-oxo-6-thioxo-5,7-diazaspiro[3.4]octan-5-yl)-2-fluoro-N-(prop-2-yn-1-yl)benzamide]", "pIC50": "> 6.00"}
{"molecule": "N#Cc1ncc(N2C(=O)C3(CCC3)N(c3ccc(C(=O)NCc4ccccc4)c(F)c3)C2=S)cc1C(F)(F)F", "note": "[Compound 235, N-Benzyl-4-(7-(6-cyano-5-(trifluoromethyl)pyridin-3-yl)-8-oxo-6-thioxo-5,7-diazaspiro[3.4]octan-5-yl)-2-fluorobenzamide]", "pIC50": "> 6.00"}
{"molecule": "Cc1ccc(N2C(=S)N(c3ccc(C#N)n4nccc34)C(=O)C23CCC3)cc1", "note": "[Compound 82, 4-(8-Oxo-6-thioxo-5-(p-tolyl)-5,7-diazaspiro[3.4]octan-7-yl)pyrazolo[1,5-a]pyridine-7-carbonitrile]", "pIC50": "> 6.00"}
{"molecule": "Cc1cc(N2C(=O)C3(CCC3)N(c3ccc(Oc4ccncn4)cc3)C2=S)cnc1C#N", "note": "[Compound 209, 3-Methyl-5-(8-oxo-5-(4-(pyrimidin-4-yloxy)phenyl)-6-thioxo-5,7-diazaspiro[3.4]octan-7-yl)picolinonitrile]", "pIC50": "> 6.00"}
{"molecule": "CNS(=O)(=O)c1ccc(N2C(=S)N(c3cnc(C#N)c(C(F)(F)F)c3)C(=O)C23CCC3)cc1", "note": "[Compound 120, 4-(7-(6-Cyano-5-(trifluoromethyl)pyridin-3-yl)-8-oxo-6-thioxo-5,7-diazaspiro[3.4]octan-5-yl)-N-methylbenzenesulfonamide]", "pIC50": "< 6.00"}
{"molecule": "Cc1cc(N2C(=O)C3(CCC3)N(c3ccc(N(C)C4CCN(C)CC4)cc3)C2=S)cnc1C#N", "note": "[Compound 102, 3-Methyl-5-(5-(4-(methyl(1-methylpiperidin-4-yl)amino)phenyl)-8-oxo-6-thioxo-5,7-diazaspiro[3.4]octan-7-yl)picolinonitrile]", "pIC50": "< 6.00"}
{"biological_target": "T1, AR-VP16", "assay": "AR-VP16 DNA Binding Assay, agonist mode (HepG2 cells)", "assay_type": "cell-based", "conditions": "Emax >20x DMSO control = agonist"}
{"molecule": "N#Cc1ncc(N2C(=O)C3(CCC3)N(c3ccc(OCCN4CCSCC4)c(F)c3)C2=S)cc1C(F)(F)F", "note": "[Compound 175, 5-(5-(3-Fluoro-4-(2-thiomorpholinoethoxy)phenyl)-8-oxo-6-thioxo-5,7-diazaspiro[3.4]octan-7-yl)-3-(trifluoromethyl)picolinonitrile]", "ARVP16 DNA Binding Assay (Agonist mode): Agonist?": "No (Agonist defined as a compound whose Emax in the ARVP16 DNA Binding Assay (Agonist mode) is >20x DMSO control)"}
{"molecule": "N#Cc1ncc(N2C(=O)C3(CCC3)N(c3ccc(-c4ccncc4)cc3)C2=S)cc1C(F)(F)F", "note": "[Compound 18, 5-(8-Oxo-5-(4-(pyridin-4-yl)phenyl)-6-thioxo-5,7-diazaspiro[3.4]octan-7-yl)-3-(trifluoromethyl)picolinonitrile]", "ARVP16 DNA Binding Assay (Agonist mode): Agonist?": "Yes (Agonist defined as a compound whose Emax in the ARVP16 DNA Binding Assay (Agonist mode) is >20x DMSO control)"}
{"molecule": "N#Cc1ncc(N2C(=O)C3(CCC3)N(c3ccc(Oc4ccccc4)cc3)C2=S)cc1C(F)(F)F", "note": "[Compound 25, 5-(8-Oxo-5-(4-phenoxyphenyl)-6-thioxo-5,7-diazaspiro[3.4]octan-7-yl)-3-(trifluoromethyl)picolinonitrile]", "ARVP16 DNA Binding Assay (Agonist mode): Agonist?": "No (Agonist defined as a compound whose Emax in the ARVP16 DNA Binding Assay (Agonist mode) is >20x DMSO control)"}
{"molecule": "CNC(=O)c1ccc(N2C(=S)N(c3cnc(C#N)c(C(F)(F)F)c3)C(=O)C23CCC3)c(F)c1", "note": "[Compound 89, 4-(7-(6-Cyano-5-(trifluoromethyl)pyridin-3-yl)-8-oxo-6-thioxo-5,7-diazaspiro[3.4]octan-5-yl)-3-fluoro-N-methylbenzamide]", "ARVP16 DNA Binding Assay (Agonist mode): Agonist?": "No (Agonist defined as a compound whose Emax in the ARVP16 DNA Binding Assay (Agonist mode) is >20x DMSO control)"}
{"molecule": "CN1CCC(Oc2ccc(N3C(=S)N(c4cnc(C#N)c(C(F)(F)F)c4)C(=O)C34CCC4)cc2)CC1", "note": "[Compound 129, 5-(5-(4-((1-Methylpiperidin-4-yl)oxy)phenyl)-8-oxo-6-thioxo-5,7-diazaspiro[3.4]octan-7-yl)-3-(trifluoromethyl)picolinonitrile]", "ARVP16 DNA Binding Assay (Agonist mode): Agonist?": "No (Agonist defined as a compound whose Emax in the ARVP16 DNA Binding Assay (Agonist mode) is >20x DMSO control)"}
